Measurements reported in patent US11040028B2, “Penicinotam derivative, preparation method and use thereof” (OCEAN UNIVERSITY OF CHINA, priority 2017, dated 2021).
Like-named read-outs stand apart in the source and are kept apart here.

How the values were obtained:
Assay type in all cases: cell-based
[1] = system: mouse macrophages (RAW264.7); assay: Lipopolysaccharide-induced NO secretion in macrophages (Griess); conditions: RAW264.7, LPS 1 μg/ml, a/b isomers given as first/second symbol, read-out: IC50 (μM), inhibition of lipopolysaccharide-induced NO secretion in macrophages
Procedure: The effects of the compounds of the present application on the lipopolysaccharide-induced NO secretion in macrophage was tested Principle: Anti-inflammatory drug activity screening is to detect the inhibitory effect of compounds on NO production in the mouse macrophages (RAW264.7). When immune cells are stimulated by microbial endotoxin, inflammatory mediators, etc., a large amount of induced NO synthase (iNOS) is produced, and thus NO is generated for immune response. Accordingly, the inhibition of NO production can serve as a direct indicator of the anti-inflammatory activity of the compound. The activity of the compound to inhibit NO production at the cellular level is directly evaluated in the abovementioned test model, thereby reflecting the anti-inflammatory activity of the compound. In this experiment, the content of NO in the medium was detected by Gris kit (Molecular probes, G-7921). Macrophages (Raw264.7) were cultured in DMEM medium containing 10% fetal bovine serum, with the cell concentration adjusted. The cells were seeded in 24-well cell culture plates, cultured in an incubator, and the test samples in different concentrations were added every other day. The blank medium was used as a blank control, and commercially available indomethacin and resveratrol were employed as positive controls. After the addition of lipopolysaccharide (LPS, 1 μg/ml), incubation was performed for 24 hours. Then the supernatant culture solution was taken, to […] reagent was added, and the absorbance value was measured by a microplate reader at 548 nm. Inhibition rate=([…])×100%.

[2] = system: human hepatic stellate cells LX-2; assay: Anti-fibrosis activity test: inhibition of proliferation of human hepatic stellate cells LX-2 (CCK-8); conditions: Homo sapiens, 48 h
Method in brief: (§1)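 A CCK-8 proliferation assay was run: cells at 2×10^4 cells/mL, adherent for 24 h, then incubated 48 h at 37° C with compound dilutions. A450 was recorded 2 h after CCK-8 addition and converted to percent inhibition versus blank for IC50 determination.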

[3] = system: human lung fibroblasts HFL1; assay: Anti-fibrosis activity test: inhibition of proliferation of human lung fibroblasts HFL1 (CCK-8); conditions: Homo sapiens, HFL1, 48 h
Method in brief: as §1

[4] = system: human fibrosarcoma cells HT-1080; assay: Anti-fibrosis activity test: inhibition of proliferation of human fibrosarcoma cells HT-1080 (CCK-8)
Method in brief: as §1

[5] = system: human embryonic lung fibroblast IMR-90; assay: Anti-fibrosis activity test: inhibition of proliferation of human embryonic lung fibroblast IMR-90 (CCK-8)
Method in brief: as §1

[6] = system: cardiac fibroblast RAT-iCell-C002; assay: Anti-fibrosis activity test: inhibition of proliferation of cardiac fibroblast RAT-iCell-C002 (CCK-8); conditions: Cardiac fibroblast, 48 h
Method in brief: as §1

BHK-21 cells = assay: Anti-fibrosis activity test: inhibition of BHK-21 cell proliferation (CCK-8); conditions: Mesocricetus auratus, BHK-21, 48 h
Method in brief: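 Read-out: CCK-8 absorbance at 450 nm after 2 h, giving proliferation inhibition (1−Ai/Ao)×100% versus blank control, from which IC50 was derived. Cells had been treated with compounds for 48 h after 24 h adherence at 37° C. Pirfenidone served as positive control.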

[7] = system: human dermal fibroblasts CCC-ESF-1; assay: Anti-fibrosis activity test: inhibition of proliferation of human dermal fibroblasts CCC-ESF-1 (CCK-8); conditions: Fibroblast
Method in brief: as §1

[8] = human hepatic stellate cells LX-2, CCK-8, 48 hours
[9] = human lung fibroblasts HFL1, CCK-8, 48 hours
[10] = Homo sapiens, HT-1080, 48 h, human fibrosarcoma cells HT-1080, CCK-8, 48 hours
[11] = human embryonic lung fibroblast IMR-90, CCK-8, 48 hours
[12] = cardiac fibroblast RAT-iCell-C002, CCK-8, 48 hours
[13] = CCK-8, 48 hours after administration
[14] = human dermal fibroblasts CCC-ESF-1, CCK-8, 48 hours
[15] = Homo sapiens, HT-1080, 48 h, HT-1080 cells, 48 h, CCK-8
[16] = Homo sapiens, IMR-90 cells, 48 h, CCK-8
[17] = Homo sapiens, CCC-ESF-1 cells, 48 h, CCK-8

Row | IC50 ([1]; Mus musculus, RAW264.7, 24 h) [µM] | IC50 [4, 10] [mM] | IC50 [4, 15] [mM] | IC50 ([1]; 24 hours) [µM] | IC50 ([4]; human fibrosarcoma cells HT-1080, CCK-8, 48 hours) [mM] | Compound | IC50 [2, 8] [mM] | IC50 [3, 9] [mM] | IC50 [5, 11] [mM] | IC50 [6, 12] [mM] | IC50 (BHK-21 cells; [13]) [mM] | IC50 [7, 14] [mM] | IC50 ([2]; LX-2, 48 h, LX-2 cells, CCK-8) [mM] | IC50 ([3]; HFL1 cells, 48 h, CCK-8) [mM] | IC50 [5, 16] [mM] | IC50 ([6]; RAT-iCell-C002 cells, CCK-8) [mM] | IC50 (BHK-21 cells; 48 h, CCK-8) [mM] | IC50 [7, 17] [mM]
1 | 1 to 10 | – | 0.05 to 5 | – | – | N#Cc1ccccc1-c1ccc(COc2c3c(nc4ccccc24)C(=O)n2cccc2-3)cc1 [Compound 795b, 4′-(((5-oxo-5H-pyrrolizino[2,1-b]quinolin-11-yl)oxy)methyl)-[1,1′-biphenyl]-2-carbonitrile] | – | – | – | – | – | – | 0.05 to 5 | 0.05 to 5 | 0.05 to 5 | 0.05 to 5 | 0.05 to 5 | 0.05 to 5
2 | – | – | – | 10 to 50 | 5 to 20 | N#Cc1c(N2CCNCC2)ccc2c(=O)c3c(n(Cc4ccc(F)cc4)c12)-c1cccn1C3=O [Compound 482a, 4-(4-Fluorobenzyl)-9,10-dioxo-6-(piperazin-1-yl)-4,10-dihydro-9H-pyrrolizino[1,2-b]quinoline-5-carbonitrile] | 0.05 to 5 | 0.05 to 5 | 0.05 to 5 | 0.05 to 5 | 0.05 to 5 | 0.05 to 5 | – | – | – | – | – | –
3 | 1 to 10 | 0.05 to 5 | – | – | – | O=C1c2c(n(Cc3ccccc3F)c3cc(Cl)ccc3c2=O)-c2cccn21 [Compound 504a, 6-Chloro-4-(2-fluorobenzyl)-9H-pyrrolizino[1,2-b]quinoline-9,10(4H)-dione] | 0.05 to 5 | 0.05 to 5 | 0.05 to 5 | 0.05 to 5 | < 0.05 | 0.05 to 5 | – | – | – | – | – | –
4 | 1 to 10 | – | 0.05 to 5 | – | – | CCCOCCn1c2c(c(=O)c3ccccc31)-c1cccn1C2=O [Compound 790a, 6-(2-Propoxyethyl)-5H-pyrrolizino[2,1-b]quinoline-5,11(6H)-dione] | – | – | – | – | – | – | 0.05 to 5 | 0.05 to 5 | 0.05 to 5 | 0.05 to 5 | 0.05 to 5 | 0.05 to 5
5 | 10 to 50 | 0.05 to 5 | – | – | – | N#Cc1cccc2nc3c(c(OCc4ccccc4F)c12)C(=O)n1cccc1-3 [Compound 469b, 9-((2-fluorobenzyl)oxy)-10-oxo-10H-pyrrolizino[1,2-b]quinoline-8-carbonitrile] | 0.05 to 5 | 0.05 to 5 | 0.05 to 5 | 0.05 to 5 | 0.05 to 5 | 0.05 to 5 | – | – | – | – | – | –
6 | 10 to 50 | 0.05 to 5 | – | – | – | O=C1c2c(n(Cc3ccc(Cl)cc3)c3c(F)c(N4CCNCC4)ccc3c2=O)-c2cccn21 [Compound 484a, 4-(4-Chlorobenzyl)-5-fluoro-6-(piperazin-1-yl)-9H-pyrrolizino[1,2-b]quinoline-9,10(4H)-dione] | 0.05 to 5 | 0.05 to 5 | 0.05 to 5 | 0.05 to 5 | 0.05 to 5 | 0.05 to 5 | – | – | – | – | – | –
7 | 1 to 10 | 0.05 to 5 | – | – | – | O=C1c2c(nc3c(C(F)(F)F)cccc3c2OCc2ccccc2Cl)-c2cccn21 [Compound 457b, 9-((2-chlorobenzyl)oxy)-5-(trifluoromethyl)-10H-pyrrolizino[1,2-b]quinolin-10-one] | 0.05 to 5 | 0.05 to 5 | 0.05 to 5 | 0.05 to 5 | 0.05 to 5 | 0.05 to 5 | – | – | – | – | – | –
8 | 1 to 10 | < 0.05 | – | – | – | N#Cc1c(N2CCNCC2)ccc2c(OCc3ccc(F)cc3)c3c(nc12)-c1cccn1C3=O [Compound 482b, 9-((4-fluorobenzyl)oxy)-10-oxo-6-(piperazin-1-yl)-10H-pyrrolizino[1,2-b]quinoline-5-carbonitrile] | 0.05 to 5 | 0.05 to 5 | 0.05 to 5 | 0.05 to 5 | 0.05 to 5 | 0.05 to 5 | – | – | – | – | – | –
9 | 1 to 10 | – | 0.05 to 5 | – | – | O=C1c2nc3ccccc3c(OCCN3CCOCC3)c2-c2cccn21 [Compound 785b, 11-(2-morpholinoethoxy)-5H-pyrrolizino[2,1-b]quinolin-5-one] | – | – | – | – | – | – | 0.05 to 5 | 0.05 to 5 | 0.05 to 5 | 0.05 to 5 | 0.05 to 5 | 0.05 to 5
10 | 0.1 to 1 | – | 0.05 to 5 | – | – | O=C1c2nc3ccccc3c(OCCCN3CCNCC3)c2-c2cccn21 [Compound 793b, 11-(3-(piperazin-1-yl)propoxy)-5H-pyrrolizino[2,1-b]quinolin-5-one] | – | – | – | – | – | – | 0.05 to 5 | 0.05 to 5 | 0.05 to 5 | 0.05 to 5 | 0.05 to 5 | 0.05 to 5

Further lines, the molecule ahead of its results:

Row | Compound | IC50 ([1]; Mus musculus, RAW264.7, 24 h) [µM] | IC50 [4, 10] [mM] | IC50 [4, 15] [mM] | IC50 ([1]; 24 hours) [µM] | IC50 ([4]; human fibrosarcoma cells HT-1080, CCK-8, 48 hours) [mM] | IC50 [2, 8] [mM] | IC50 [3, 9] [mM] | IC50 [5, 11] [mM] | IC50 [6, 12] [mM] | IC50 (BHK-21 cells; [13]) [mM] | IC50 [7, 14] [mM] | IC50 ([2]; LX-2, 48 h, LX-2 cells, CCK-8) [mM] | IC50 ([3]; HFL1 cells, 48 h, CCK-8) [mM] | IC50 [5, 16] [mM] | IC50 ([6]; RAT-iCell-C002 cells, CCK-8) [mM] | IC50 (BHK-21 cells; 48 h, CCK-8) [mM] | IC50 [7, 17] [mM]
11 | N#Cc1cccc2c(=O)c3c(n(Cc4cccc(F)c4)c12)-c1cccn1C3=O [Compound 454a, 4-(3-Fluorobenzyl)-9,10-dioxo-4,10-dihydro-9H-pyrrolizino[1,2-b]quinoline-5-carbonitrile] | 0.1 to 1 | 0.05 to 5 | – | – | – | 0.05 to 5 | 0.05 to 5 | 0.05 to 5 | 0.05 to 5 | 0.05 to 5 | 0.05 to 5 | – | – | – | – | – | –
12 | O=C1c2c(nc3c(F)cccc3c2OCc2ccc(F)cc2)-c2cccn21 [Compound 452b, 5-fluoro-9-((4-fluorobenzyl)oxy)-10H-pyrrolizino[1,2-b]quinolin-10-one] | 1 to 10 | 0.05 to 5 | – | – | – | 0.05 to 5 | 0.05 to 5 | 0.05 to 5 | 0.05 to 5 | 0.05 to 5 | 0.05 to 5 | – | – | – | – | – | –
13 | O=C1c2c(n(Cc3ccccc3Cl)c3c(C(F)(F)F)cccc3c2=O)-c2cccn21 [Compound 457a, 4-(2-Chlorobenzyl)-5-(trifluoromethyl)-9H-pyrrolizino[1,2-b]quinoline-9,10(4H)-dione] | 1 to 10 | 0.05 to 5 | – | – | – | < 0.05 | 0.05 to 5 | 0.05 to 5 | 0.05 to 5 | 0.05 to 5 | 0.05 to 5 | – | – | – | – | – | –
14 | O=C1c2c(n(-c3ccc(Cl)cc3)c3ccc(C(F)(F)F)cc3c2=O)-c2cccn21 [Compound 276a, 4-(4-Chlorophenyl)-7-(trifluoromethyl)-9H-pyrrolizino[1,2-b]quinoline-9,10(4H)-dione] | 0.1 to 1 | 0.05 to 5 | – | – | – | 0.05 to 5 | 0.05 to 5 | 0.05 to 5 | 5 to 20 | < 0.05 | 0.05 to 5 | – | – | – | – | – | –
15 | O=C1c2c(n(Cc3ccc(Cl)cc3)c3c(Cl)cccc3c2=O)-c2cccn21 [Compound 451a, 5-Chloro-4-(4-chlorobenzyl)-9H-pyrrolizino[1,2-b]quinoline-9,10(4H)-dione] | 1 to 10 | 0.05 to 5 | – | – | – | 0.05 to 5 | < 0.05 | 0.05 to 5 | 0.05 to 5 | 0.05 to 5 | 0.05 to 5 | – | – | – | – | – | –
16 | O=C1c2c(nc3c(C(F)(F)F)cccc3c2OCc2ccc(Cl)cc2)-c2cccn21 [Compound 450b, 9-((4-chlorobenzyl)oxy)-5-(trifluoromethyl)-10H-pyrrolizino[1,2-b]quinolin-10-one] | 1 to 10 | 5 to 20 | – | – | – | 0.05 to 5 | 0.05 to 5 | 0.05 to 5 | 0.05 to 5 | 0.05 to 5 | 0.05 to 5 | – | – | – | – | – | –
17 | O=C1c2c(n(-c3ccc(F)cc3)c3ccc(C(F)(F)F)cc3c2=O)-c2cccn21 [Compound 259a, 4-(4-Fluorophenyl)-7-(trifluoromethyl)-9H-pyrrolizino[1,2-b]quinoline-9,10(4H)-dione] | 1 to 10 | 0.05 to 5 | – | – | – | 0.05 to 5 | 0.05 to 5 | 0.05 to 5 | 0.05 to 5 | 0.05 to 5 | 5 to 20 | – | – | – | – | – | –
